This is an account of results in patent US20100029752A1, “NOVEL COMPOUNDS, PHARMACEUTICAL COMPOSITIONS CONTAINING SAME, AND METHODS OF USE FOR SAME” (priority 2005, published 2010).

In brackets after ≈: the same amount, converted by molar mass. Like-named read-outs stand apart in the source and are kept apart here.

The subject of experiment [1] is Staphylococcus aureus (ATCC # 29213). Kind of experiment: Broth microdilution MIC, S. aureus. Conditions: for MIC: Staphylococcus aureus, ATCC29213. The class given is cell-based. The method, then:
(§1) A broth microdilution assay is used to assess the antimicrobial activity of the compounds. […] Microorganisms tested include Staphylococcus aureus (ATCC # 29213), Enterococcus faecalis (ATCC # 29212), Pseudomonas aeruginosa (ATCC # 27853), and Escherichia coli (ATCC # 25922). The assay is performed in two growth media, Mueller Hinton Broth and Trypticase Soy Broth. A blood (Tsoy/5% sheep blood) agar plate is inoculated from frozen stocks maintained in T soy broth containing 10% glycerol and incubated overnight at 37° C. Colonies are suspended in sterile broth so that the turbidity matches the turbidity of a 0.5 McFarland standard. The inoculum is diluted 1:10 in sterile broth (Mueller Hinton or Trypticase soy) and 195 ul is dispensed per well of a 96-well plate. The compounds to be tested, dissolved in DMSO, are added to the wells in 5 ul volume at the following concentrations: 25, 12.5, 6.25, 3.125, 1.56 and 0.78 ug/ml in duplicate. Additional concentrations are tested if required. 5 ul of DMSO added to duplicate wells are the vehicle control. Serial dilutions of positive control compounds, vancomycin (E. faecalis and S. aureus) and tobramycin (E. coli and P. aeruginosa), are included in each run. After 24 hours of incubation at 37° C., plates are read at OD600 on a Molecular Devices SpectraMax Plus Spectrophotometer. Average OD600 values are computed using SOFTmax Pro Software (Molecular Devices) and MIC values are determined by linear regression analysis using Prism version 3.02 (Graph Pad Software, San Diego). The MIC is defined as the concentration of compound required to produce an OD600 reading equivalent to 10% of the vehicle control reading.
For orientation: Broth dilution looks for growth in wells or tubes with falling amounts of substance.

For experiment [2], the system named is Escherichia coli (ATCC # 25922). Kind of experiment: Broth microdilution MIC, E. coli. The class given is cell-based. Conditions: for MIC: Escherichia coli, ATCC25922. The method, then: as §1
The test system of experiment [3] is Pseudomonas aeruginosa (ATCC # 27853). The experiment is described as follows: Broth microdilution MIC, P. aeruginosa. It counts as cell-based. Conditions: for PSAE/MH (MIC): Mueller Hinton Broth. The method, then:
as §1

For experiment [4], the system named is Enterococcus faecalis (ATCC # 29212). The experiment is described as follows: Broth microdilution MIC, E. faecalis. The class given is cell-based. The note with it: for MIC: Enterococcus faecalis, ATCC29212. The method, then:
as §1

The nature of experiment [5]: Weight loss screen. It counts as in vivo, Balb/C mice. Conditions: 60 mg/kg intraperitoneally. The method, then: Balb/C mice (Jackson Labs) are utilized for the initial weight loss screening. Animals are housed in temperature and 12 hour day/night cycle rooms and fed mouse chow and water ad lib. Three mice are utilized for each compound tested with vehicle controls in triplicate per experiment. For the experiments, mice are housed separately for each compound tested three mice to a cage. Compounds are diluted in DMSO at 10 mg/ml and mice are injected intraperitoneally with 60 mg/kg in approximately 100 μl of DMSO or with vehicle alone. Mice are observed and weighed daily; average weights and standard errors are computed with Excel (Microsoft). The experiment continues until treated animals reach their pretreatment weights. Select compounds are tested in animals housed in metabolic cages. Dosing of animals are identical to the screening experiments with three animals to a single metabolic cage. Animal weights, water and food consumption, and urine and feces production are measured daily.

Experiment [6] concerns the target T1, FAS (Homo sapiens, UniProt P49327).
T1 construct: Human FAS was purified from cultured ZR-75-1 human breast cancer cells; endogenous in cells
The experiment is described as follows: FAS (IC50) marked (SB). Conditions: value marked (SB), not defined. The class given is biochemical.

The mark [7] stands for this setting: Mueller Hinton Broth, read-out: SA/MH (MIC).
Where [8] appears, read: Mueller Hinton Broth, read-out: EF/MH (MIC).
[9] abbreviates: Trypticase Soy Broth, read-out: EF/Tsoy (MIC).

T1 sequence (P49327 whole entry): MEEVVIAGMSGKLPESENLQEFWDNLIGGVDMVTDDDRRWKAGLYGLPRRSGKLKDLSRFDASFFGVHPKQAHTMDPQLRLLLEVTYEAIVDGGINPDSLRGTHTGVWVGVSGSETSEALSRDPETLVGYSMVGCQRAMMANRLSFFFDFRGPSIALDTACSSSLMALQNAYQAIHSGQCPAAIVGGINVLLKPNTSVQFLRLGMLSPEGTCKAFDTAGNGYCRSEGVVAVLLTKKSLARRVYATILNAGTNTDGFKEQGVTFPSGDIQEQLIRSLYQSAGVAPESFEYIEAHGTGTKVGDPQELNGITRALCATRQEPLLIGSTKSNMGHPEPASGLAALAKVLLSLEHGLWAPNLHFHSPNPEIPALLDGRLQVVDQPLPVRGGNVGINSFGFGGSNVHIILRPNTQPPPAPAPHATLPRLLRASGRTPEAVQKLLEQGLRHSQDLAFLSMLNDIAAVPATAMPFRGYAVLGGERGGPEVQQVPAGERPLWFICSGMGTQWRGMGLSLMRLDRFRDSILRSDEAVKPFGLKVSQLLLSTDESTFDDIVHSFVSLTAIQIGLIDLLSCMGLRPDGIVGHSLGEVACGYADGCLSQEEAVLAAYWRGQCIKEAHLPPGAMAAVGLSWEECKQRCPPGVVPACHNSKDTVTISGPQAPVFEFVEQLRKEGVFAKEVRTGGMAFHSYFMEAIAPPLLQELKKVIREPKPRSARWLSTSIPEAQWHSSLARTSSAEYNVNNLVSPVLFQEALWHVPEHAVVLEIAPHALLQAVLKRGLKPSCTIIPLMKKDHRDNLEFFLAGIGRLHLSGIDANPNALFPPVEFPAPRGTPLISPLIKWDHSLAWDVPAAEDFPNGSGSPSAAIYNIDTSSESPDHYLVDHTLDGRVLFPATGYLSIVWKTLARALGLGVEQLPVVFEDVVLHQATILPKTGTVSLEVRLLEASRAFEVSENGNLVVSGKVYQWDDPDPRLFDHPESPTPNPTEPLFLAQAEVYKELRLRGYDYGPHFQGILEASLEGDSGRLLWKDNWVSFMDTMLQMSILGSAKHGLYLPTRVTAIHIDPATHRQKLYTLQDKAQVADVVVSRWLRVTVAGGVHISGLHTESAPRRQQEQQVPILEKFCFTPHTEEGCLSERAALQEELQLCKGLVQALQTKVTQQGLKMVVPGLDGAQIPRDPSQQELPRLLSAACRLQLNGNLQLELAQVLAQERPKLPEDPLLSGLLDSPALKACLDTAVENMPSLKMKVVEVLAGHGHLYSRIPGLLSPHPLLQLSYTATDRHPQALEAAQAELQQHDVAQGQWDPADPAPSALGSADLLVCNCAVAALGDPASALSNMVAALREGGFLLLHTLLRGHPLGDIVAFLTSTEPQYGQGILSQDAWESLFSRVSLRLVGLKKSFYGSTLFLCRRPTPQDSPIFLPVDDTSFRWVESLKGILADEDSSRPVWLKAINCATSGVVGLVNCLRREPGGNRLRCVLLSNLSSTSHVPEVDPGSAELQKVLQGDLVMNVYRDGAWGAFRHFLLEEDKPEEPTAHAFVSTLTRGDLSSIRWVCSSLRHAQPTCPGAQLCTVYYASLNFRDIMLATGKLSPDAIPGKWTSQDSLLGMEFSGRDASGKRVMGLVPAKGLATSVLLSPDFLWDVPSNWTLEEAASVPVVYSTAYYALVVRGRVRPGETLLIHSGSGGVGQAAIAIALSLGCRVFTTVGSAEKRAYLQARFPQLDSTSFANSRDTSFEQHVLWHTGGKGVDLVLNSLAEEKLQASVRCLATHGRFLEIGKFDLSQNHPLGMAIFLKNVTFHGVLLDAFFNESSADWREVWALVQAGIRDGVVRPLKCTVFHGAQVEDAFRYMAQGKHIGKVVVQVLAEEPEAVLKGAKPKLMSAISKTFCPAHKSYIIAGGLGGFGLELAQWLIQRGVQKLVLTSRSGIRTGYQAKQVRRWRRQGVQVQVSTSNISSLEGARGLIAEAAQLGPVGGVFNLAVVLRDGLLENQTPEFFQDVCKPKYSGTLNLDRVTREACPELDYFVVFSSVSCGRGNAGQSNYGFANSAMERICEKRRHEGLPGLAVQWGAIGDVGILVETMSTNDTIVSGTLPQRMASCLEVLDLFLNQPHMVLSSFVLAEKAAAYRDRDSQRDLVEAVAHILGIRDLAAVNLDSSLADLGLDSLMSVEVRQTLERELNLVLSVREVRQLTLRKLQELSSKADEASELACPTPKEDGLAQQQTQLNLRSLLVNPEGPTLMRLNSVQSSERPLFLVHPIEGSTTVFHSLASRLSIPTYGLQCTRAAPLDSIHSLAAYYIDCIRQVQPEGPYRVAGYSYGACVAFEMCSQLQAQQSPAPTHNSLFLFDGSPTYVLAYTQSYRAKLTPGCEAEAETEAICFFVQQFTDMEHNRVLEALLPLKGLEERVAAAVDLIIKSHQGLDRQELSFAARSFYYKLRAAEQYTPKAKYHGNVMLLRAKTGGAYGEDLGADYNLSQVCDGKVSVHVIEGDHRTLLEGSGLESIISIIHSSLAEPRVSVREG

Consider `CCCCCCCCNC(=O)c1cc(O)c(C(=O)OC)s1`, for which the “SA/MH (MIC)” value in experiment [1] (Mueller Hinton Broth) is on record as “Neg”. The “SA/Tsoy (MIC)” value in experiment [1] (Trypticase Soy Broth) is “Neg”. For the same compound, the “Ecoli/MH (MIC)” value in experiment [2] (Mueller Hinton Broth) is “Neg”. The “Ecoli/Tsoy (MIC)” value in experiment [2] (Trypticase Soy Broth) is listed as “Neg”. Further, in experiment [3], the “PSAE/MH (MIC)” value is given as “Neg”. Also, the “PSAE/Tsoy (MIC)” value in experiment [3] (Trypticase Soy Broth) is on record as “Neg”. The “EF/MH (MIC)” value in experiment [4] (Mueller Hinton Broth) is listed as “Neg”. Further, in experiment [4] (Trypticase Soy Broth), the “EF/Tsoy (MIC)” value was “Neg”.

On to `C=CCNC(=O)c1cc(O)c(C(=O)OC)s1`, for which the MIC is 80 mg/L (≈ 332 µM) in experiment [1] (setting [7]), 88 mg/L (≈ 365 µM) in experiment [4] (setting [8]) and 134 mg/L (≈ 555 µM) in experiment [4] (setting [9]). Moreover, the “SA/Tsoy (MIC)” value in experiment [1] (Trypticase Soy Broth) was “Neg”. In experiment [2] (Mueller Hinton Broth), the “Ecoli/MH (MIC)” value is listed as “Neg”. Besides, the “Ecoli/Tsoy (MIC)” value in experiment [2] (Trypticase Soy Broth) is “Neg”. In experiment [3], the “PSAE/MH (MIC)” value is “Neg”. In addition, in experiment [3] (Trypticase Soy Broth), the “PSAE/Tsoy (MIC)” value is recorded as “Neg”. In addition, in experiment [5] (day 1), the “Weight Loss” value is on record as 60 mg/kg: +2.3% (day 1).

As to `COC(=O)c1sc(C(=O)O)cc1O`, the MIC in experiment [1] (setting [7]) was 149 mg/L (≈ 737 µM); in experiment [4] (setting [8]), 101 mg/L (≈ 500 µM). Also, in experiment [1] (Trypticase Soy Broth), the “SA/Tsoy (MIC)” value is “Neg”. Besides, in experiment [2] (Mueller Hinton Broth), the “Ecoli/MH (MIC)” value is “Neg”. Further, in experiment [2] (Trypticase Soy Broth), the “Ecoli/Tsoy (MIC)” value was “Neg”. In experiment [3], the “PSAE/MH (MIC)” value is on record as “Neg”. For the same compound, the “PSAE/Tsoy (MIC)” value in experiment [3] (Trypticase Soy Broth) is on record as “Neg”. Also, the “EF/Tsoy (MIC)” value in experiment [4] (Trypticase Soy Broth) is reported as “Neg”.

Turning to `CCCCCCCCNC(=O)c1cc(O)cs1`, the MIC in experiment [1] (setting [7]) came to 82 mg/L (≈ 321 µM); in experiment [2] (Trypticase Soy Broth, read-out: Ecoli/Tsoy (MIC)), 89 mg/L (≈ 348 µM); in experiment [3] (Pseudomonas aeruginosa, ATCC27853, Trypticase Soy Broth, read-out: PSAE/Tsoy (MIC)), 83 mg/L (≈ 325 µM); in experiment [4] (setting [9]), 123 mg/L (≈ 482 µM). Moreover, the “SA/Tsoy (MIC)” value in experiment [1] (Trypticase Soy Broth) is “Neg”. Besides, the IC50 (commonly the concentration needed to halve the response being measured) in experiment [6] is 325 µM. Also, the “Ecoli/MH (MIC)” value in experiment [2] (Mueller Hinton Broth) is “Neg”. Also, the “PSAE/MH (MIC)” value in experiment [3] was “Neg”. For the same compound, the “PSAE/Tsoy (MIC)” value in experiment [3] (Trypticase Soy Broth) is on record as “(MIC) Neg”. Moreover, in experiment [4] (Mueller Hinton Broth), the “EF/MH (MIC)” value was “Neg”. Moreover, in experiment [5] (day 2), the “Weight Loss” value was 60 mg/kg: 1.6% (day 2).

Turning to `COC(=O)c1sc(C(=O)NNc2ccc(Cl)cc2)cc1O`, the MIC in experiment [1] (setting [7]) stood at 66 mg/L (≈ 202 µM); in experiment [1] (Trypticase Soy Broth, read-out: SA/Tsoy (MIC)) it was 227 mg/L (≈ 695 µM); in experiment [2] (Mueller Hinton Broth, read-out: Ecoli/MH (MIC)), 136 mg/L (≈ 416 µM). The compound also showed an IC50 in experiment [6] of 305 µM. Moreover, in experiment [2] (Trypticase Soy Broth), the “Ecoli/Tsoy (MIC)” value is given as “Neg”. The “PSAE/MH (MIC)” value in experiment [3] is “Neg”. In addition, in experiment [3] (Trypticase Soy Broth), the “PSAE/Tsoy (MIC)” value is “Neg”. The “EF/MH (MIC)” value in experiment [4] (Mueller Hinton Broth) is given as “Neg”. Besides, the “EF/Tsoy (MIC)” value in experiment [4] (Trypticase Soy Broth) was “Neg”. Also, in experiment [5] (day 1), the “Weight Loss” value is recorded as 60 mg/kg: +1.2% (day 1).
